Data: ChEMBL document CHEMBL5303573, “Mapping human microbiome drug metabolism by gut bacteria and their genes” (Nature, 2019)

Key:
[1] = The drug is tested on Collinsella aerofaciens strain: ATCC25986 for biotransformation. The drug concentrations were measured before and after a 12-h incubation by liquid-chromatography-coupled mass spectrometry (LC–MS); conditions: 2 µM
[2] = The drug is tested on Alistipes indistinctus strain: DSM22520 for biotransformation. The drug concentrations were measured before and after a 12-h incubation by liquid-chromatography-coupled mass spectrometry (LC–MS); conditions: 2 µM
[3] = The drug is tested on Bacteroides fragilis strain: HMW615 for biotransformation. The drug concentrations were measured before and after a 12-h incubation by liquid-chromatography-coupled mass spectrometry (LC–MS); conditions: 2 µM
[4] = The drug is tested on Bacteroides vulgatus strain: ATCC8482 for biotransformation. The drug concentrations were measured before and after a 12-h incubation by liquid-chromatography-coupled mass spectrometry (LC–MS); conditions: phocaeicola vulgatus, 2 µM
[5] = The drug is tested on Parabacteroides merdae strain: ATCC43184 for biotransformation. The drug concentrations were measured before and after a 12-h incubation by liquid-chromatography-coupled mass spectrometry (LC–MS); conditions: 2 µM
[6] = The drug is tested on Blautia hansenii strain: DSM20583 for biotransformation. The drug concentrations were measured before and after a 12-h incubation by liquid-chromatography-coupled mass spectrometry (LC–MS); conditions: 2 µM
[7] = The drug is tested on Clostridium sporogenes strain: ATCC15579 for biotransformation. The drug concentrations were measured before and after a 12-h incubation by liquid-chromatography-coupled mass spectrometry (LC–MS); conditions: 2 µM
[8] = The drug is tested on Dorea formicigenerans strain: ATCC27755 for biotransformation. The drug concentrations were measured before and after a 12-h incubation by liquid-chromatography-coupled mass spectrometry (LC–MS); conditions: 2 µM
[9] = The drug is tested on Eubacterium rectale strain: ATCC33656 for biotransformation. The drug concentrations were measured before and after a 12-h incubation by liquid-chromatography-coupled mass spectrometry (LC–MS); conditions: agathobacter rectalis, 2 µM
[10] = The drug is tested on Ruminococcus gnavus strain: ATCC29149 for biotransformation. The drug concentrations were measured before and after a 12-h incubation by liquid-chromatography-coupled mass spectrometry (LC–MS); conditions: mediterraneibacter gnavus, 2 µM
[11] = The drug is tested on Ruminococcus lactaris strain: ATCC29176 for biotransformation. The drug concentrations were measured before and after a 12-h incubation by liquid-chromatography-coupled mass spectrometry (LC–MS); conditions: 2 µM
[12] = The drug is tested on Subdoligranulum variabile strain: DSM15176 for biotransformation. The drug concentrations were measured before and after a 12-h incubation by liquid-chromatography-coupled mass spectrometry (LC–MS); conditions: 2 µM
[13] = The drug is tested on Providencia stuartii strain: ATCC25827 for biotransformation. The drug concentrations were measured before and after a 12-h incubation by liquid-chromatography-coupled mass spectrometry (LC–MS); conditions: 2 µM
[14] = bacteroides fragilis, 12 h, 2 µM
Description: The drug is tested on Bacteroides fragilis strain: NCTC 9343 for biotransformation. The drug concentrations were measured before and after a 12-h incubation by liquid-chromatography-coupled mass spectrometry (LC–MS)

[15] = bacteroides fragilis, 12 h, 2 µM; remark: listed apart in the source
Description: The drug is tested on Bacteroides fragilis strain: 3397 (T10) for biotransformation. The drug concentrations were measured before and after a 12-h incubation by liquid-chromatography-coupled mass spectrometry (LC–MS)

[16] = parabacteroides johnsonii, 12 h, 2 µM
Description: The drug is tested on Parabacteroides johnsonii strain: DSM18315 for biotransformation. The drug concentrations were measured before and after a 12-h incubation by liquid-chromatography-coupled mass spectrometry (LC–MS)

[17] = segatella copri, 12 h, 2 µM
Description: The drug is tested on Prevotella copri strain: DSM18205 for biotransformation. The drug concentrations were measured before and after a 12-h incubation by liquid-chromatography-coupled mass spectrometry (LC–MS)

[18] = enterocloster bolteae, 12 h, 2 µM
Description: The drug is tested on Clostridium bolteae strain: ATCCBAA-613 for biotransformation. The drug concentrations were measured before and after a 12-h incubation by liquid-chromatography-coupled mass spectrometry (LC–MS)

[19] = roseburia intestinalis, 12 h, 2 µM
Description: The drug is tested on Roseburia intestinalis strain: L1-82 for biotransformation. The drug concentrations were measured before and after a 12-h incubation by liquid-chromatography-coupled mass spectrometry (LC–MS)

Measured: Bacterial Biotransformation

CCOC(=O)[C@H](CCc1ccccc1)N[C@H]1CCc2ccccc2N(CC(=O)O)C1=O [BENAZEPRIL]
Compound NOT metabolized: [2] | [6] | [8] | [9] | [10] | [11] | [12] | [13] | [14] | [18]
Compound metabolized: [1] | [3] | [4] | [5] | [7] | [15] | [16] | [17] | [19]

CCc1oc2ccccc2c1C(=O)c1cc(Br)c(O)c(Br)c1 [BENZBROMARONE]
Compound NOT metabolized: [1] | [2] | [3] | [4] | [5] | [6] | [7] | [8] | [9] | [10] | [11] | [12] | [13] | [14] | [15] | [16] | [17] | [19]

Clc1ccc(Cn2c(CN3CCCC3)nc3ccccc32)cc1 [CLEMIZOLE]
Compound metabolized: [6]
Compound NOT metabolized: [1] | [2] | [3] | [4] | [5] | [7] | [8] | [9] | [10] | [11] | [12] | [13] | [15] | [16] | [17] | [18] | [19]

CNCCC(Oc1ccc(C(F)(F)F)cc1)c1ccccc1 (centres undefined) [FLUOXETINE]
Compound metabolized: [1] | [2] | [3] | [4] | [5] | [6] | [7] | [8] | [9] | [10] | [11] | [12] | [13] | [14] | [15] | [16] | [17] | [18] | [19]
